# From patent US11679167B2, “Ophthalmic compositions, and ocular uses thereof, of indigo carmine” (priority 2018, dated 2023)
# Entries after “also recorded” stand apart in the source; their conditions may differ.
# Assays:
# eye bank eyes = experiment: Dye solution instilled by injection into the anterior chamber of eye bank eyes; staining and outflow seen by naked eye or operating microscope; design: species or system human; conditions: for Appearance (egress) of dye in the outflow vessels after injection into the anterior chamber: human eye bank eyes, Indigo Carmine 0.004, 0.04 and 0.4 wt. %
# Source text: After an incision is made into the anterior chamber of the eye, a small amount of aqueous humor is expressed and the dye solution is instilled by injection into the anterior chamber. The dye solution is typically left in place for 30 seconds, during which time it stains the anterior capsule of the lens. Excess dye solution is then expelled, usually using a viscoelastic device or flushed out with a balanced salt solution.
# Dye solutions containing 0.004 wt. %, 0.04 wt. %, and 0.4 wt. % of Indigo Carmine (prepared by serial dilutions of a 0.4 wt. % Indigo Carmine solution provided by Micro-Tech (Nanjing) Co.) were instilled by injection into the anterior chamber of seven eye bank eyes following the dye solution instillation procedure detailed above.
# Special imaging techniques were not required.
# [1] = test system: ocular surface squamous neoplastic lesion; experiment: Topical application of dye to a human eye, slit lamp view; assay type: in vivo
# Source text: FIG. 8 is a slit lamp view of a human eye wherein an ocular surface squamous neoplastic lesion is delineated after topical application of Indigo Carmine. A blue outline is seen around the perimeter of the white ocular surface squamous neoplastic lesion.
# [2] = cited from earlier work
# [3] = sodium salt; cited from earlier work
# porcine eye = experiment: Dye injected into the lenticular plain after Small Incision Lenticule Extraction (SMILE)
# Source text: FIG. 9A is an operating microscope view of a porcine eye upon which a Small Incision Lenticule Extraction procedure (SMILE) has been carried out. From this view, circular horizontal plains have been cut in the corneal stroma, a superficial smaller diameter cut and a deeper cut of larger diameter. The cuts join in the corneal periphery, thereby creating a lenticule. The arrows show the edge of these cuts.
# FIG. 9B is an operating microscope view of a porcine eye upon which a Small Incision Lenticule Extraction procedure (SMILE) has been carried out. Indigo Carmine has been injected into the lenticular plain.
# anterior capsule = conditions: cited from earlier work
# ocular structures = conditions: cited from earlier work
# [4] = anterior chamber perfused or injected with dye solution, sodium salt
compound,measurement,setting,value
"O=C1C(=C2Nc3ccc(S(=O)(=O)[O-])cc3C2=O)Nc2ccc(S(=O)(=O)[O-])cc21.[Na+].[Na+] [Indigo Carmine, 5,5′-indigodisulfonic acid sodium salt]",Diffusion of dye through tissues,eye bank eyes,generally does not diffuse through tissues
same,Staining of the canal of Schlemm,eye bank eyes; [4],stains heavily; also recorded: heavy staining of Schlemm's canal
same,Staining of the trabecular meshwork,eye bank eyes; [4],stains the trabecular meshwork lightly; also recorded: more lightly stained
same,Visibility of dye in the collector channels on the surface of the eye after passing through the drainage system,"eye bank eyes; at each concentration: 0.004 wt. %, 0.04 wt. %, 0.4 wt. %",visible to the naked eye of the surgeon
same,Appearance (egress) of dye in the outflow vessels after injection into the anterior chamber,eye bank eyes; sodium salt,"appeared in the fine vessels in the conjunctiva adjacent to the limbus, the aqueous veins and the conjunctival venous system; also recorded: some of the dye exiting the eye through the aqueous veins"
same,Staining of the anterior capsule of the lens,"eye bank eyes; injection via small corneal incision, capsulorhexis procedure, sodium salt",stain the anterior capsule of the crystalline lens; also recorded: lightly stained
same,Visibility of dye on the surface of the instilled eye,"eye bank eyes; no special imaging techniques, standard operating microscope",easily visible to the naked eye of the surgeon
same,Dye in the deep scleral plexus,"eye bank eyes; once the conjunctiva was reflected away, sodium salt",observed in the deep scleral plexus; also recorded: deeper vessels are seen
same,Delineation of ocular surface squamous neoplastic lesion,[1],delineated
same,Solubility in water,[2],soluble in water
same,Protein binding,[3],low protein binding; also recorded: relatively reduced protein binding
same,Identification of the lenticule edge,porcine eye,white arrows indicate the complete circular edge of the lenticule
CC1(C)C(/C=C/C=C/C=C/C=C2\N(CCCCS(=O)(=O)O)c3ccc4ccccc4c3C2(C)C)=[N+](CCCCS(=O)(=O)[O-])c2ccc3ccccc3c21 [Indocyanine Green],Appearance (egress) of dye in the outflow vessels after injection into the anterior chamber,eye bank eyes,the dye appears to remain within the eye
CCN(CC)c1ccc(C(=C2C=CC(=[N+](CC)CC)C=C2)c2cc(O)c(S(=O)(=O)O)cc2S(=O)(=O)O)cc1 [Patent Blue],Appearance (egress) of dye in the outflow vessels after injection into the anterior chamber,eye bank eyes,the dye appears to remain within the eye
Cc1cc(-c2ccc(/N=N/c3c(S(=O)(=O)O)cc4cc(S(=O)(=O)O)cc(N)c4c3O)c(C)c2)ccc1/N=N/c1c(S(=O)(=O)O)cc2cc(S(=O)(=O)O)cc(N)c2c1O [Trypan Blue],Lowest concentration at which staining of the anterior capsule occurs,anterior capsule,≥ 0.0125 wt. %
same,Appearance (egress) of dye in the outflow vessels after injection into the anterior chamber,eye bank eyes,the dye appears to remain within the eye
same,Identifying and visualizing anterior lens capsule and trabecular meshwork,ocular structures,effective
same,Identifying or visualizing the canal of Schlemm,ocular structures,not effective
Brilliant Blue,Appearance (egress) of dye in the outflow vessels after injection into the anterior chamber,eye bank eyes,the dye appears to remain within the eye
